This passage reports AC50 results from PubChem BioAssay AID449750 (Broad Institute, 2010).

What is called AC50 is the midpoint of the concentration-response curve, whichever way the signal moves.

Values joined by “and” are separate entries in the source; they are usually repeats but may differ in a detail not shown here. Equal entries are not always repeated. Active and inactive are the calls of the source. No rule for the calls is given here.

This experiment can be described thus: non-covalent RecA intein splicing inhibitors, dose response, biochemical, cell-free, fluorescence, secondary screen (AID 449750).
For `COc1cc2c(cc1OC)-c1c(OC)c(OC)cc3c1[C@H](C2)N(C)CC3`, the AC50 is 27 µM.

For `[O-][n+]1c2c(nc3c1-c1ccccc1C3O)CCCC2` (stereo not drawn), the AC50 is 31.2 µM. The same measure for `O=C1C=C(NCCN2CCOCC2)C(=O)c2cnccc21`: 1.54 µM. The same measure for `Oc1c(Cl)cc(Cl)c(Cl)c1Cc1c(O)c(Cl)cc(Cl)c1Cl`: 6.85 µM; for `Oc1[nH]c(=S)sc1C=C1N=c2ccccc2=N1`: > 38 µM (inactive); for `O=C1C(Cl)=C(N2CCOCC2)C(=O)N1c1cccc(C(F)(F)F)c1`: > 38 µM (inactive). In the case of `Cc1c(Cl)cccc1NC(=O)CSCc1cc(=O)[nH][nH]1`, the AC50 is 33.3 µM. The same measure for `COc1ccc(C(=O)Nc2ccncc2)cc1[N+](=O)[O-]`: > 38 µM (inactive); for `c1ccc(CCNCc2cccs2)cc1`: > 38 µM (inactive). The same measure for `CCOC(=O)N1CCC(c2cc(=O)n(-c3ccccc3)[nH]2)CC1`: 6.18 µM; for `O=C1C=C(NCc2ccccc2)c2ccccc2C1=O`: 5.91 µM; for `CCOC(=O)C1CCN(C(=O)c2c(C)oc3c2C(=O)c2ccccc2C3=O)CC1`: 21 µM. For `CCOC(=O)c1nn(-c2ccccc2C)c(=O)c2c(N)scc12`, the AC50 was > 38 µM (inactive). The same measure for `O=C(N/N=C/c1ccc(OC(=O)c2ccco2)cc1)c1ccc[n+]([O-])c1`: > 38 µM (inactive); for `O=C(Nc1ccccc1)Nc1ccc(O)c2ccccc12`: 14.4 µM; for `Cc1nn(-c2ccccc2)c2c1C(c1ccco1)C(C#N)=C(N)O2` (stereo not drawn): 14 µM.

In the case of `COc1ccccc1Oc1cc(C#N)c(C#N)cc1-n1nnc2ccccc21`, the AC50 is 16.5 µM. The value for `Cc1cc(C(=O)Cn2ncc(Cl)c(Cl)c2=O)c(C)n1CC(F)(F)F` was > 38 µM (inactive); that for `O=C(Nc1ccccc1)c1nnsc1S(=O)c1ccc(Cl)cc1` (stereo not drawn) was > 38 µM (inactive); that for `CC1(CC(=O)N/N=C/c2ccc(OCc3ccc(Cl)cc3Cl)cc2)OCCCO1` was 11.2 µM. `COC(=O)C[C@]1(C(=O)OC)CN(C#N)N(c2ccc(Cl)cc2)C12c1ccccc1-c1ccccc12`: the AC50 is 14.3 µM. The value for `O=C(/C=C/c1cccs1)Nc1scc(-c2ccccc2)c1C(=O)O` was 23.7 µM. The same measure for `NC1=C(Br)C(=O)c2ccccc2C1=O`: 13.1 µM; for `Oc1ccc(N=Cc2ccc(OCc3ccccc3)cc2)cc1`: > 38 µM (inactive); for `Oc1ccc(C=Nc2ccc3ncccc3c2)c(O)c1`: 3.75 µM.

Regarding `Oc1[nH]c2ccc(Br)cc2c1N=NC(=S)N1CCOCC1`, the AC50 is > 38 µM (inactive). Take `FC(F)(F)c1nnc(-c2ccccc2)nc1Oc1ccc(Cl)cc1Cl`: the AC50 is > 38 µM (inactive). The same measure for `O=C(Cc1cc(=O)[nH][nH]1)N/N=C/c1c(Cl)cccc1Cl`: 16 µM and 23.9 µM; for `COc1ccc(C(=O)Nc2ccc(O)c3ccccc23)cc1`: 3.85 µM; for `CCn1c(O)c(N=Nc2cccc(S(=O)(=O)N3CCOCC3)c2)c(=O)n(CC)c1=S`: > 38 µM (inactive). The same measure for `CCOC(=O)CSc1nnc(NCC(=O)OC)c(=O)[nH]1`: > 38 µM (inactive); for `CCc1ccc(NC(=O)C(=O)N/N=C(\C)CC(=O)Nc2ccccn2)cc1`: > 38 µM (inactive); for `COc1ccc(C(=O)NC(=S)NNC(=O)CCc2ccccc2)cc1`: > 38 µM (inactive). The same measure for `COc1ccc(NC(=O)Nc2ccc(O)c3ccccc23)cc1`: 39.3 µM; for `Cc1ccc(-c2[nH]nc3c2C(C)C(C#N)=C(N)O3)cc1` (stereo not drawn): > 38 µM (inactive). Consider `CCc1ccc(S(=O)(=O)/N=C2\C=C(Nc3ccc(C(=O)O)cc3)C(=O)c3ccccc32)cc1`, for which the AC50 is 0.348 µM. The same measure for `CCCc1[nH]nc2c1C(CCC)C(C#N)=C(N)O2` (stereo not drawn): > 38 µM (inactive). `O=C1C(Nc2ccccc2)=C(N2CCCCC2)C(=O)c2ccccc21`: the AC50 is 12.6 µM. The same measure for `C/C(CC(=O)Nc1cccnc1)=N\NC(=O)c1ccc([N+](=O)[O-])c(Cl)c1`: > 38 µM (inactive); for `O=C(N/N=C/c1cc(Cl)cc([N+](=O)[O-])c1O)c1ccccc1NS(=O)(=O)c1cccs1`: 22.6 µM; for `Cc1ccc(-n2nc(C)c(NC(=O)CCl)c2C)cc1C`: 16.1 µM. On to `COc1cc(C(c2c(C)[nH][nH]c2=O)c2c(C)[nH][nH]c2=O)cc(Cl)c1O`, for which the AC50 was 2.2 µM.

For the compound `CC(=O)Oc1c(Br)cc(N(C(C)=O)S(=O)(=O)c2ccccc2)c2ccccc12`, the AC50 is 8.88 µM. Take `O=c1cc(N=Nc2ccc(Cl)cc2)[nH]c(=O)[nH]1`: the AC50 was > 38 µM (inactive). With `Cc1nc2c(=O)n(C)c(=O)nc-2n(C)n1`, the AC50 is 0.0855 µM.

Consider `COc1cc(/C=N/NC(=O)c2ccc(F)cc2)ccc1OC(=O)c1ccco1`, for which the AC50 was > 38 µM (inactive).

Turning to `CCc1ccccc1N1C(=O)C(Cl)=C(N2CCOCC2)C1=O`, the AC50 was > 38 µM (inactive). Take `O=[N+]([O-])c1c(Nc2ccccn2)cc(Cl)c2nonc12`: the AC50 is 1.76 µM. The value for `Cc1cc(-c2ccccc2)nc2cc(C(=O)N(Cc3ccccc3)Cc3ccccc3)nn12` was 18.8 µM; that for `Cc1onc(-c2c(Cl)cccc2Cl)c1C(=O)N1C(C)CCCC1C` (stereo not drawn) was > 38 µM (inactive); that for `COc1ccc(NC(=O)c2cccc(N3C(=O)C4C5C=CC(C5)C4C3=O)c2)cc1Cl` (stereo not drawn) was > 38 µM (inactive). The value for `Cc1ccc(-c2csc(NC(=O)CSC3=NCCS3)n2)cc1` was 19.1 µM; that for `Cc1ccc(NC2=C(NCCO)C(=O)c3ccccc3C2=O)cc1` was 20.3 µM. The same measure for `COc1cc(OC)cc(-c2nnc(Sc3ccc(C=O)cc3[N+](=O)[O-])o2)c1`: 21.3 µM. For `O=C1CCCC(O)=C1C(C#Cc1ccccc1)C1=C(O)CCCC1=O`, the AC50 was 14.7 µM.

As for `O=[N+]([O-])c1ccc2nc(Cl)nc(-c3ccccc3)c2c1`, the AC50 is > 38 µM (inactive). `CCN(CC)c1ccc(/C=N/Nc2nc(C)cc(=O)[nH]2)c(O)c1`: the AC50 is > 38 µM (inactive).

For the compound `COc1ccc(OC)c(C2C(C#N)=C(N)Oc3c2c(C)nn3-c2ccc(C)cc2)c1` (stereo not drawn), the AC50 was 31.1 µM. The same measure for `CCCCn1[nH]c(-c2ccccc2)cc1=O`: 8.57 µM. The same measure for `CCCc1[nH]nc2c1C(c1ccncc1)C(C#N)=C(N)O2` (stereo not drawn): > 38 µM (inactive); for `CN(C1=C(NC(=O)c2ccccc2)C(=O)c2ccccc2C1=O)C1CCS(=O)(=O)C1` (stereo not drawn): 3.3 µM; for `CC(C)(c1ccccc1)c1ccc(OCC2CO2)cc1` (stereo not drawn): 8.68 µM. The same measure for `Cc1nc2ccccc2c2c1C(=O)N(Cc1cccnc1)C2=O`: > 38 µM (inactive); for `Cc1nc2c(=O)n(C)c(=O)n(C)c2nc1Cl`: > 38 µM (inactive); for `CCCCCCCCCCCCCCCCn1cc[n+](C)c1`: 7.12 µM and 7.27 µM. For the compound `Fc1ccc(Sc2nc(-c3ccccc3)nnc2C(F)(F)F)cc1`, the AC50 was > 38 µM (inactive). Take `CCCC(=O)OCCNc1cc(Sc2nc3ccccc3[nH]2)c2nonc2c1[N+](=O)[O-]`: the AC50 was > 38 µM (inactive). In the case of `Cn1c2c(c(=O)n(C)c1=O)[C@@]1(C(=O)Nc3ccccc31)C(C#N)=C(N)O2`, the AC50 is > 38 µM (inactive).
